# Experimental data from patent US12060388B2, “Cell-penetrating peptides and methods of use thereof” (priority 2018, dated 2024).
# What was measured:
# Format in all cases: cell-based
# HPV16 PsV = assay: Inhibition of HPV16 PsV infection of HaCaT keratinocytes; settings: 14 μM, MOI of 1, 48 h.p.i.
# Text: FIG. 18A (top) depicts sequences of L2 peptides. […] Amino acid substitutions in the CPP or RBS mutant peptides are shown in orange and blue, respectively. Bottom: RBS and flanking sequences of indicated HPV L2 proteins or DMT1-II. FIG. 18B depicts an inhibitory dose-response curve for P16/16 peptide. 5×10^4 HeLa-S3 in 24-well plates were pretreated with various concentrations of P16/16 for one hour prior to infection with HPV pseudovirus (PsV) at multiplicity of infection (MOI) of 1. Peptide was left in the medium for the duration of the experiment. Cells were assessed by flow cytometry to determine the fraction of cells expressing reporter protein HcRed at 48 hours post-infection (h.p.i.). […] Forty-eight h.p.i., cells were assessed by flow cytometry to determine fraction of cells expressing reporter protein HcRed. […] HaCaT keratinocytes were infected at MOI of 1 with HPV16 PsV in the presence and absence of 14 μM P16/16, and infectivity was assessed 48 h.p.i. by flow cytometry for HcRed fluorescence. […] Successful infection by HPV16 and HPV16 PsV was assessed by quantitative reverse transcription-PCR (qRT-PCR) for expression of HPV early region and HcRed mRNA, respectively, and normalized to infection by the cognate virus in the absence of peptide. Background signal determined with non-cognate primers was <0.01%.
# authentic HPV16 = assay: Inhibition of authentic HPV16 in HeLa cells, qRT-PCR for viral mRNA; settings: 14 μM, HPV16 from organotypic raft cultures, qRT-PCR 48 h.p.i.
# Experimental: To measure the inhibition of infection by authentic HPV16, HeLa cells were infected with 5 μL raft-derived HPV16 (obtained from Craig Meyers, Hershey Medical Center) or with HPV16 PsV in the presence and absence of 14 μM P16/16, and total RNA was isolated 48 h.p.i. by using the RNeasy kit following the manufacturer's instructions. RNA was reverse-transcribed into cDNA by iScript cDNA Synthesis kit. The cDNA was quantified in triplicate by using SYBR Green Supermix real-time PCR detection system and primers for HPV16 E7 or HcRed. Actin mRNA were used for normalization.
# [1] = system: retromer subunit VPS35 / HPV16 L1; assay: Proximity ligation assay for HPV16 L1 and VPS35 in peptide-treated infected cells; settings: 14 μM, MOI of 200, eight h.p.i.
# Experimental: FIG. 19A depicts uninfected HeLa cells were incubated with 14 μM bP16/16 or bPDM/16 for three hours (“b” refers to peptides with an N-terminal biotin moiety). Cells were then fixed, permeabilized, and stained with AlexaFluor-streptavidin (green) and with anti-VPS35 (red). Overlapping signal is pseudocolored yellow. Nuclei were stained blue with DAPI. Mander's correlation coefficients for overlap between streptavidin and VPS35 staining are shown at right, with each spot representing an individual cell. Approximately 100 cells were analyzed for each condition. […] Images were processed by Fiji and quantitatively analyzed by BlobFinder software to measure total fluorescence intensity per cell in each sample. […]
# (§1) For the proximity ligation assay, after an hour incubation with peptides, HeLa-S3 cells were infected with wild-type PSV at MOI of 200 or mutant PsV containing the same number of reporter plasmid genomes. […] The nuclei were stained by using Abcam fluorescence mounting medium with DAPI and images were acquired by a Leica SP5 inverted fluorescence microscope. […] The images were processed by Fiji and quantitatively analyzed by BlobFinder software to measure total fluorescence intensity in each sample. The average fluorescence intensity per cell in each sample was normalized to the control sample as indicated in each experiment. […]
# TGN46 / HPV16 L1 = assay: Proximity ligation assay for L1 and TGN46 in peptide-treated infected cells; settings: 14 μM, MOI of 200, 16 h.p.i.
# Experimental: HeLa-S3 cells grown on glass coverslips for 16 hours were incubated for one hour with or without 14 μM P16/16, followed by mock-infection or infection with HPV16 PSV at MOI of 200. 8 and 16 h.p.i., cells were processed for PLA with anti-L1 antibody and an antibody recognizing EEA1 (FIG. 20A) or TGN46 (FIG. 20B). PLA was performed as in FIG. 19B. The PLA signal for EEA1/L1 was normalized to that of cells infected with HPV16 PsV in the absence of peptide at 8 h.p.i., while the TGN46/L1 signal was normalized to untreated cells at 16 h.p.i.
# as §1, with “genomes. Infected cells were fixed at 8 or 16 h.p.i., permeabilized, and incubated with 1:100 dilutions of anti-L1 antibody and an antibody recognizing EEA1, TGN46, or VPS35.” for “genomes.”
smiles,measurement,setting,value
CC[C@H](C)[C@H](NC(=O)[C@@H](NC(=O)[C@H](Cc1ccc(O)cc1)NC(=O)[C@H](CCC(N)=O)NC(=O)[C@@H]1CCCN1C(=O)[C@H](CO)NC(=O)[C@@H](N)CS)[C@@H](C)O)C(=O)N[C@H](C(=O)N[C@@H](C)C(=O)N[C@@H](CC(=O)O)C(=O)N[C@@H](C)C(=O)NCC(=O)N[C@@H](CC(=O)O)C(=O)N[C@@H](Cc1ccccc1)C(=O)N[C@@H](Cc1ccc(O)cc1)C(=O)N[C@@H](CC(C)C)C(=O)N[C@@H](Cc1c[nH]cn1)C(=O)N1CCC[C@H]1C(=O)N[C@@H](CO)C(=O)N[C@@H](Cc1ccc(O)cc1)C(=O)N[C@@H](Cc1ccc(O)cc1)C(=O)N[C@@H](CCSC)C(=O)N[C@@H](CC(C)C)C(=O)N[C@@H](CCCNC(=N)N)C(=O)N[C@@H](CCCCN)C(=O)N[C@@H](CCCNC(=N)N)C(=O)N[C@@H](CCCNC(=N)N)C(=O)N[C@@H](CCCCN)C(=O)N[C@@H](CCCNC(=N)N)C(=O)O)[C@@H](C)CC [P16/16],inhibition of HPV16 PsV infection in HaCaT,HPV16 PsV,inhibited infection
same,inhibition of authentic HPV16,authentic HPV16,inhibited
same,interaction of retromer with HPV (VPS35/L1 PLA),[1],inhibited the interaction of retromer with HPV
same,TGN46/L1 PLA at 16 h.p.i.,TGN46 / HPV16 L1,inhibited the arrival of HPV in the TGN
